Assay results from patent US4670540A, “Novel peptide” (Ajinomoto Co., Inc., priority 1984, dated 1987).

What was measured:
rat aortic strips = test: Spasmolytic activity in rat aortic strips; format: cell-based; conditions: aortic strips contracted with norepinephrine (5×10^-8 M); specific activity, α-hANP[1-28] = 100; mean ± standard error, number of experiments in parentheses
Procedure: (1) Spasmolytic activity in rat aortic strips. Male Sprague-Dawley rats weighing 250-280 g were used. After the rats were decapitated, their thoracic aorta were obtained and aortic helical strips were prepared. Krebs solution was used in this assay system. The aortic strips were suspended in a 20 ml organ-bath which was aerated with 5% carbon dioxide and 95% oxygen and kept at 37° ±0.5° C. The aortic tension was recorded isotonically. The isotonic recording system, consisted of a transducer and amplifier (ME commercial ME4012) and a recorder (Sanei 8K21). A resting tension of 0.5 g was loaded on the aortic strips. The prepared strips were left under the described conditions for 1 hour to obtain the stable tension. The aortic preparation contracted with norepinephrine (5×10^-8 M) was exposed to ANP to examine its relaxant activity. The dose response curve was obtained for the α-hANP(1-28) and the ANP fragment in the same preparation. The 50% effective dose (ED50) for each preparation was obtained and the ratio was used as the specific activity.

chick rectum = test: Spasmolytic activity in chick rectum; format: cell-based; conditions: rectum contracted with carbachol (2×10^-7 M); specific activity, α-hANP[1-28] = 100; mean ± standard error, number of experiments in parentheses
Procedure: (2) Spasmolytic activity in chick rectum. Male, 2- to 3-week-old chicks weighing 155-175 g were used. After the chicks were anesthetized with pentobarbital (6 mg/kg, ip), their rectums were excised. Krebs solution was used. The rectums were suspended in 20 ml organ-bath aerated with 5% carbon dioxide and 95% oxygen and kept at 37° ±0.5° C. Contractile tension of the rectum was determined isotonically. The isotonic recording system used was the same as that used in testing the rat aortic preparations. The rectal preparations were stabilized by keeping them under 0.5 g of tension conditions for 1 hour. The rectal preparations contracted with carbachol (2×10^-7 M),were exposed to ANP to examine its relaxing effect. As with the rat aortic preparations, ED50 for the standard α-haNP(1-28) and for the ANP fragment were determined, and the specific activity were calculated.

Row | Molecule | Spasmolytic Activity in Rat Aorta (ratio of ED50 to the standard hANP (1-28)) (rat aortic strips) | Spasmolytic Activity in Chick Rectum (ratio of ED50 to the standard hANP (1-28)) (chick rectum)
1 | CC[C@H](C)[C@@H]1NC(=O)[C@H](CCCNC(=N)N)NC(=O)[C@H](CC(=O)O)NC(=O)[C@H](CCSC)NC(=O)[C@H](CCCNC(=N)N)NC(=O)CNC(=O)CNC(=O)[C@H](Cc2ccccc2)NC(=O)[C@@H](NC(=O)[C@H](CO)NC(=O)[C@H](CO)NC(=O)[C@H](CCCNC(=N)N)NC(=O)[C@H](CCCNC(=N)N)NC(=O)[C@H](CC(C)C)NC(=O)[C@@H](N)CO)CSSC[C@@H](C(=O)N[C@@H](CC(N)=O)C(=O)N[C@@H](CO)C(=O)N[C@@H](Cc2ccccc2)C(=O)N[C@@H](CCCNC(=N)N)C(=O)N[C@@H](Cc2ccc(O)cc2)C(=O)O)NC(=O)CNC(=O)[C@H](CC(C)C)NC(=O)CNC(=O)[C@H](CO)NC(=O)[C@H](CCC(N)=O)NC(=O)[C@H](C)NC(=O)CNC1=O [α-hANP[1-28], α-human atrial natriuretic peptide] | 100 | 100
2 | (Nle^12)α-hANP(1-28) [[Nle^12]-α-hANP[1-28]] | 80.5 ± 12.2 | 70.3 ± 10.9
